In general, EC50 refers to the concentration needed to bring the measured effect to its halfway point.

For this experiment, the target named is T1, STAT6 (Homo sapiens, UniProt P42226).
T1 construct: stably transfected HaCaT keratinocyte cell line, which expresses NanoLuc luciferase reporter gene under the transcriptional control of the STAT6 responsive promoter; endogenous in cells; host or cells: HaCaT keratinocyte reporter cell line (stably transfected with a NanoLuc reporter)
T1 sequence (P42226 1-847): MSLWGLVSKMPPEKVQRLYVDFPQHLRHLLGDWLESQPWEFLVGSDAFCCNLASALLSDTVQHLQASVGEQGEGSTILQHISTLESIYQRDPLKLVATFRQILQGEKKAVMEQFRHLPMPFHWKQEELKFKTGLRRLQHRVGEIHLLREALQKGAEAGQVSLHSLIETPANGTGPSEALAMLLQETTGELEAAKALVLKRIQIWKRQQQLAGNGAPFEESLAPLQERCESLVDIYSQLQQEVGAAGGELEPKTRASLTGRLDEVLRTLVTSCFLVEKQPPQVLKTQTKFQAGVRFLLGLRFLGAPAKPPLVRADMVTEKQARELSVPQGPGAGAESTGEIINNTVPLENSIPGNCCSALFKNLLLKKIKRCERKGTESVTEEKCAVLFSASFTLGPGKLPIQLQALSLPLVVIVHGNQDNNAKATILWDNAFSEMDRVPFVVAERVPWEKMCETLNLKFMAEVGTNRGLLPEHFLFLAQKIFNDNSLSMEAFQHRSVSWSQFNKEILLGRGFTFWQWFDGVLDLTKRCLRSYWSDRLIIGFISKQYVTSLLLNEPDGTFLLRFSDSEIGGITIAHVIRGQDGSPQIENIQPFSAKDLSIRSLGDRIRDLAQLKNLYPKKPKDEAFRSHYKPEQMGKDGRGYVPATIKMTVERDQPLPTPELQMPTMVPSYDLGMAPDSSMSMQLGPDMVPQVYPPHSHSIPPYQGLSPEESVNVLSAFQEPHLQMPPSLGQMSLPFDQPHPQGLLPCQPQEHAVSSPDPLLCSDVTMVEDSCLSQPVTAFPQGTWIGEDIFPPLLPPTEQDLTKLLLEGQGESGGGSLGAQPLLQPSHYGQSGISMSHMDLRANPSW
The experiment is described as follows: STAT6 Reporter Luciferase Assay (IL-13 stimulated HaCaT keratinocyte NanoLuc reporter cells). The settings on record: IL-13 stimulated HaCaT STAT6 NanoLuc reporter cells; read-out: Reporter EC50. Type of experiment: cell-based. The gist of the method: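 HaCaT cells stably carrying a NanoLuc reporter driven by the STAT6-responsive IL-13Ra2 promoter were preincubated with compounds for 2 h at 37 °C in 2% FBS medium. Cells were then stimulated with 0.12 nM IL-13 for 4 h, and luminescence was read after Nano-Glo substrate. Compounds ran as 11-point 4-fold dilutions in duplicate.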
With `COC[C@@H]1CCCN1C(=O)c1ccc(N2CCc3c(c(C(=O)NCc4ccc(NC(=O)N(C)C)cc4)nn3C(C)C)C2)nc1` [Example 209, (S)-N-(4-(3,3-dimethylureido)benzyl)-1-isopropyl-5-(5-(2-(methoxymethyl)pyrrolidine-1-carbonyl)pyridin-2-yl)-4,5,6,7-tetrahydro-1H-pyrazolo[4,3-c]pyridine-3-carboxamide], the EC50 stood at 0.692 µM.

As to `CC(C)n1nc(C(=O)NCc2ccc(NC(=O)N(C)C)cc2)c2c1CCN(c1ccc(C(=O)N3CC(C#N)C3)cn1)C2` [Example 210, 5-(5-(3-cyanoazetidine-1-carbonyl)pyridin-2-yl)-N-(4-(3,3-dimethylureido)benzyl)-1-isopropyl-4,5,6,7-tetrahydro-1H-pyrazolo[4,3-c]pyridine-3-carboxamide], the EC50 was 1.06 µM.

Regarding `CC(=O)N[C@@H]1CCN(C(=O)c2ccc(N3CCc4c(c(C(=O)NCc5ccc(NC(=O)N(C)C)cc5)nn4C(C)C)C3)nc2)C1` [Example 211, (R)-5-(5-(3-acetamidopyrrolidine-1-carbonyl)pyridin-2-yl)-N-(4-(3,3-dimethylureido)benzyl)-1-isopropyl-4,5,6,7-tetrahydro-1H-pyrazolo[4,3-c]pyridine-3-carboxamide], the EC50 was 0.934 µM.

On to `CC(C)n1nc(C(=O)NCc2ccc(NC(=O)N(C)C)cc2)c2c1CCN(c1ccc(C(=O)N3C[C@H]4C[C@@H](C3)O4)cn1)C2` [Example 212, 5-(5-((1R,5S)-6-oxa-3-azabicyclo[3.1.1]heptane-3-carbonyl)pyridin-2-yl)-N-(4-(3,3-dimethylureido)benzyl)-1-isopropyl-4,5,6,7-tetrahydro-1H-pyrazolo[4,3-c]pyridine-3-carboxamide], for which the EC50 is 0.278 µM.

As for `CCN(CC(=O)NC)C(=O)c1ccc(N2CCc3c(c(C(=O)NCc4ccc(NC(=O)N(C)C)cc4)nn3C(C)C)C2)nc1` [Example 213, N-(4-(3,3-dimethylureido)benzyl)-5-(5-(ethyl(2-(methylamino)-2-oxoethyl)carbamoyl)pyridin-2-yl)-1-isopropyl-4,5,6,7-tetrahydro-1H-pyrazolo[4,3-c]pyridine-3-carboxamide], the concentration giving a half-maximal response (EC50) stood at 0.718 µM.

Take `CC(C)n1nc(C(=O)NCc2ccc(NC(=O)N(C)C)cc2)c2c1CCN(c1ccc(C(=O)N3CCNC(=O)CC3)cn1)C2` [Example 214, N-(4-(3,3-dimethylureido)benzyl)-1-isopropyl-5-(5-(5-oxo-1,4-diazepane-1-carbonyl)pyridin-2-yl)-4,5,6,7-tetrahydro-1H-pyrazolo[4,3-c]pyridine-3-carboxamide]: the 50% effective concentration (EC50) worked out at 0.502 µM.

In the case of `CC(C)n1nc(C(=O)NCc2ccc(NC(=O)N(C)C)cc2)c2c1CCN(c1ccc(C(=O)N3CC(O)C3)cn1)C2` [Example 215, N-(4-(3,3-dimethylureido)benzyl)-5-(5-(3-hydroxyazetidine-1-carbonyl)pyridin-2-yl)-1-isopropyl-4,5,6,7-tetrahydro-1H-pyrazolo[4,3-c]pyridine-3-carboxamide], the concentration giving a half-maximal response (EC50) is 0.276 µM.

Take `CO[C@@H]1CCN(C(=O)c2ccc(N3CCc4c(c(C(=O)NCc5ccc(NC(=O)N(C)C)cc5)nn4C(C)C)C3)nc2)C1` [Example 216, (R)-N-(4-(3,3-dimethylureido)benzyl)-1-isopropyl-5-(5-(3-methoxypyrrolidine-1-carbonyl)pyridin-2-yl)-4,5,6,7-tetrahydro-1H-pyrazolo[4,3-c]pyridine-3-carboxamide]: the EC50 is 0.546 µM.

Turning to `CC(C)n1nc(C(=O)NCc2ccc(NC(=O)N(C)C)cc2)c2c1CCN(c1ccc(C(=O)N3CCNC(=O)C3(C)C)cn1)C2` [Example 217, 5-(5-(2,2-dimethyl-3-oxopiperazine-1-carbonyl)pyridin-2-yl)-N-(4-(3,3-dimethylureido)benzyl)-1-isopropyl-4,5,6,7-tetrahydro-1H-pyrazolo[4,3-c]pyridine-3-carboxamide], the EC50 amounted to 0.272 µM.

As for `CC(C)n1nc(C(=O)NCc2ccc(NC(=O)N(C)C)cc2)c2c1CCN(c1ccc(C(=O)N3CCC[C@@H]3C(N)=O)cn1)C2` [Example 218, (R)-5-(5-(2-carbamoylpyrrolidine-1-carbonyl)pyridin-2-yl)-N-(4-(3,3-dimethylureido)benzyl)-1-isopropyl-4,5,6,7-tetrahydro-1H-pyrazolo[4,3-c]pyridine-3-carboxamide], the EC50 amounted to 2.38 µM.

As to `CC(C)n1nc(C(=O)NCc2ccc(NC(=O)N(C)C)cc2)c2c1CCN(c1ccc(C(=O)N3CCCNC(=O)C3)cn1)C2` [Example 221, N-(4-(3,3-dimethylureido)benzyl)-1-isopropyl-5-(5-(3-oxo-1,4-diazepane-1-carbonyl)pyridin-2-yl)-4,5,6,7-tetrahydro-1H-pyrazolo[4,3-c]pyridine-3-carboxamide], the EC50 turned out to be 0.227 µM.

On to `CNC(=O)[C@@H]1CCCN1C(=O)c1ccc(N2CCc3c(c(C(=O)NCc4ccc(NC(=O)N(C)C)cc4)nn3C(C)C)C2)nc1` [Example 222, (S)-N-(4-(3,3-dimethylureido)benzyl)-1-isopropyl-5-(5-(2-(methylcarbamoyl)pyrrolidine-1-carbonyl)pyridin-2-yl)-4,5,6,7-tetrahydro-1H-pyrazolo[4,3-c]pyridine-3-carboxamide], for which the EC50 was 1.48 µM.

In the case of `CC(C)n1nc(C(=O)NCc2ccc(NC(=O)N(C)C)cc2)c2c1CCN(c1ccc(C(=O)N3CCNC(=O)C3)cn1)C2` [Example 223, N-(4-(3,3-dimethylureido)benzyl)-1-isopropyl-5-(5-(3-oxopiperazine-1-carbonyl)pyridin-2-yl)-4,5,6,7-tetrahydro-1H-pyrazolo[4,3-c]pyridine-3-carboxamide], the half-maximal effective concentration (EC50) is 0.201 µM.

For `CC(=O)N1CCN(C(=O)c2ccc(N3CCc4c(c(C(=O)NCc5ccc(NC(=O)N(C)C)cc5)nn4C(C)C)C3)nc2)CC1` [Example 224, 5-(5-(4-acetylpiperazine-1-carbonyl)pyridin-2-yl)-N-(4-(3,3-dimethylureido)benzyl)-1-isopropyl-4,5,6,7-tetrahydro-1H-pyrazolo[4,3-c]pyridine-3-carboxamide], the concentration giving a half-maximal response (EC50) was 0.163 µM.

`COC[C@H]1CCCN1C(=O)c1ccc(N2CCc3c(c(C(=O)NCc4ccc(NC(=O)N(C)C)cc4)nn3C(C)C)C2)nc1` [Example 225, (R)-N-(4-(3,3-dimethylureido)benzyl)-1-isopropyl-5-(5-(2-(methoxymethyl)pyrrolidine-1-carbonyl)pyridin-2-yl)-4,5,6,7-tetrahydro-1H-pyrazolo[4,3-c]pyridine-3-carboxamide]: the EC50 came out at 0.644 µM.

As for `COC1(C)CN(C(=O)c2ccc(N3CCc4c(c(C(=O)NCc5ccc(NC(=O)N(C)C)cc5)nn4C(C)C)C3)nc2)C1` [Example 226, N-(4-(3,3-dimethylureido)benzyl)-1-isopropyl-5-(5-(3-methoxy-3-methylazetidine-1-carbonyl)pyridin-2-yl)-4,5,6,7-tetrahydro-1H-pyrazolo[4,3-c]pyridine-3-carboxamide], the EC50 was found to be 1.93 µM.

Consider `CC(C)n1nc(C(=O)NCc2ccc(NC(=O)N(C)C)cc2)c2c1CCN(c1ccc(C(=O)N3C[C@@H]4C[C@H]3C(=O)N4)cn1)C2` [Example 227, N-(4-(3,3-dimethylureido)benzyl)-1-isopropyl-5-(5-((1S,4S)-6-oxo-2,5-diazabicyclo[2.2.1]heptane-2-carbonyl)pyridin-2-yl)-4,5,6,7-tetrahydro-1H-pyrazolo[4,3-c]pyridine-3-carboxamide], for which the EC50 was above 6.12 µM.

For `CC(C)n1nc(C(=O)NCc2ccc(NC(=O)N(C)C)cc2)c2c1CCN(c1ccc(C(=O)N3CCC4(COC4)C3)cn1)C2` [Example 228, 5-(5-(2-oxa-6-azaspiro[3.4]octane-6-carbonyl)pyridin-2-yl)-N-(4-(3,3-dimethylureido)benzyl)-1-isopropyl-4,5,6,7-tetrahydro-1H-pyrazolo[4,3-c]pyridine-3-carboxamide], the EC50 amounted to 0.116 µM.

As for `CCNC(=O)CN(C)C(=O)c1ccc(N2CCc3c(c(C(=O)NCc4ccc(NC(=O)N(C)C)cc4)nn3C(C)C)C2)nc1` [Example 229, N-(4-(3,3-dimethylureido)benzyl)-5-(5-((2-(ethylamino)-2-oxoethyl)(methyl)carbamoyl)pyridin-2-yl)-1-isopropyl-4,5,6,7-tetrahydro-1H-pyrazolo[4,3-c]pyridine-3-carboxamide], the EC50 came out at 0.592 µM.

In the case of `CC(C)n1nc(C(=O)NCc2ccc(NC(=O)N(C)C)cc2)c2c1CCN(c1ccc(C(=O)N3C[C@@H]4OCCO[C@@H]4C3)cn1)C2` [Example 239, N-(4-(3,3-dimethylureido)benzyl)-5-(5-((4aR,7aS)-hexahydro-5H-[1,4]dioxino[2,3-c]pyrrole-6-carbonyl)pyridin-2-yl)-1-isopropyl-4,5,6,7-tetrahydro-1H-pyrazolo[4,3-c]pyridine-3-carboxamide], the half-maximal effective concentration (EC50) was 0.236 µM.

The values are drawn from patent US20250320213A1, “Nitrogen-Containing Heterocyclic Compounds” (Pfizer Inc., priority 2024, published 2025).
